Source: US12559523B2, “Compositions comprising chemerin analogs and methods of use” (OKYO Pharma Limited, priority 2019, dated 2026)
Non-standard residues stand in square brackets, D forms with d. Residues, ends and D or L forms follow the SMILES beside them. *: point of attachment. PEG8 = NCCOCCOCCOCCOCCOCCOCCOCCOCCC(=O)O; Palmitoyl = CCCCCCCCCCCCCCCC(=O)*; Tic = O=C(O)[C@@H]1Cc2ccccc2CN1; Nle = CCCC[C@H](N)C(=O)O; Nva = CCC[C@H](N)C(=O)O

Columns and labels:
CD4+ T cells = assay: Immunohistochemistry count of CD4+ T cells in conjunctival epithelium, dry eye; type: in vivo, mouse; conditions: FIG. 3 and 5
Method: In FIGS. 3 and 5, immunohistochemistry is used to detect CD4+ T cells. Enucleated mouse eyes with intact conjunctiva were suspended in optimal cutting temperature (OCT) compound and flash frozen in liquid nitrogen. Immunohistochemistry was performed on six micrometer frozen sections to detect and count the number of cells in conjunctival epithelium that stained positively for CD4, a biotinylated secondary antibody and NovaRED peroxidase. Positively stained cells were counted in the conjunctiva using Nikon imaging software.

[1] = test system: conjunctival goblet cells (GC); assay: Conjunctival goblet cell density measurement, dry eye; type: in vivo, mouse; conditions: superior and inferior conjunctiva; FIG. 4 and 6
Method: In FIGS. 4 and 6, conjunctival goblet cells (GC) measurement is performed as follows. Enucleated mouse eyes with intact conjunctiva were fixed in 10% formalin and embedded in paraffin. Six-micrometer sections were stained with periodic acid-Schiff reagent.

SMILES	dry eye induced CD4+ T-cells infiltration (CD4+ T cells)	dry eye induced loss of goblet cell density [1]
CCCCCCCCCCCCCCCC(=O)NCCOCCOCCOCCOCCOCCOCCOCCOCCC(=O)NCC(=O)NCC(=O)N[C@H](Cc1ccc(O)cc1)C(=O)N[C@@H](Cc1ccccc1)C(=O)N[C@@H](CC(C)C)C(=O)N1CCC[C@H]1C(=O)N[C@H](CO)C(=O)N[C@@H](CCC(N)=O)C(=O)N[C@@H](Cc1ccccc1)C(=O)N[C@H](C)C(=O)N1Cc2ccccc2C[C@H]1C(=O)N[C@@H](CO)C(=O)O [OK-101, Gly-Gly-dTyr-Phe-Leu-Pro-dSer-Gln-Phe-dAla-Tic-Ser] ({Palmitoyl-PEG8}-GG[dY]FLP[dS]QF[dA][Tic]S-OH)	significantly reduced	normalized
CCCCCCCCCCCCCCCC(=O)NCCOCCOCCOCCOCCOCCOCCOCCOCCC(=O)N[C@@H](CCC)C(=O)NCC(=O)N[C@H](Cc1ccc(O)cc1)C(=O)N[C@@H](Cc1ccccc1)C(=O)N[C@@H](CCCC)C(=O)N1CCC[C@H]1C(=O)N[C@H](CO)C(=O)N[C@@H](CCC(N)=O)C(=O)N[C@@H](Cc1ccccc1)C(=O)N[C@H](C)C(=O)N1Cc2ccccc2C[C@H]1C(=O)N[C@H](C)C(=O)O [OK-113, NorV-Gly-dTyr-Phe-Nle-Pro-dSer-Gln-Phe-dAla-Tic-dAla] ({Palmitoyl-PEG8}-[Nva]G[dY]F[Nle]P[dS]QF[dA][Tic][dA]-OH)	significantly reduced	normalized
